The first assay has as its target human ALK5 (Homo sapiens (Human), UniProt P36897). As to the kind of experiment: ADP-GLO Kinases assay, inhibitory activity on ALK5.
Settings: not given
In kind it is biochemical. Here is the method:
The enzymatic activity of compounds of the present invention was monitored measuring the formation of ADP using the ADP-GLO Kinases assay. Following the incubation of the purified enzyme, a substrate and ATP, the produced ADP was converted into ATP, which in turn was converted into light by Ultra-Glo Luciferase. The luminescent signal positively correlated with ADP amount and kinase activity. […] The assay was performed in 384-well format and was validated using a selection of reference compounds that was tested in 11 point concentration-response curve.
Chain of human ALK5 (P36897 80-503 limits assumed): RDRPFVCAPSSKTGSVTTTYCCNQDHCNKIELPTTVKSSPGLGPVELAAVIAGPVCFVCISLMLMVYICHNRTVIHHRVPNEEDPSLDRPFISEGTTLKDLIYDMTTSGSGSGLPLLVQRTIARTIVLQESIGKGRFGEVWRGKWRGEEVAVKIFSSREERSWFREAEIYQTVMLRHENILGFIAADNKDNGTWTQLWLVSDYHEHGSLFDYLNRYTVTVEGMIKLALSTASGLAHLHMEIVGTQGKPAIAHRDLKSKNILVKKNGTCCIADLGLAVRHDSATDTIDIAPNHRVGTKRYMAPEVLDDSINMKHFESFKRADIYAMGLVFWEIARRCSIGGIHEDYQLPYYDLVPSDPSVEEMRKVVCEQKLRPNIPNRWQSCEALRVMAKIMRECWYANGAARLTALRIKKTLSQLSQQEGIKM
Consider `Cc1nnc(-c2cc(Cl)ccc2F)cc1Nc1ccnc2cc(OC(=O)N3C[C@@H]4C[C@H]3CN4C)ccc12` [Example 160, 4-{[6-(5-Chloro-2-Fluorophenyl)-3-Methylpyridazin-4-Yl]Amino}Quinolin-7-Yl (1S,4S)-5-Methyl-2,5-Diazabicyclo[2.2.1]Heptane-2-Carboxylate], for which the IC50 is < 1 nM.

In the case of `CN1CCN(CCN(C)C(=O)Oc2ccc3c(Nc4cnnc(-c5cc(Cl)ccc5F)c4)ccnc3c2)CC1` [Example 45, 4-{[6-(5-Chloro-2-Fluorophenyl)Pyridazin-4-Yl]Amino}Quinolin-7-Yl N-Methyl-N-[2-(4-Methylpiperazin-1-Yl)Ethyl]Carbamate], the IC50 is 1 to 5 nM.

The same assay, now with this note: purified recombinant human ALK5 2.6 nM, TGFβ1 peptide substrate, 25° C, 150 min incubation, ADP-Glo detection; read-out: ALK5 IC50.
For `O=C(OCCN1CCOCC1)c1ccc2nccc(Nc3cnnc(-c4cc(Cl)ccc4F)c3)c2c1` [Example 5, 2-(Morpholin-4-Yl)Ethyl 4-{[6-(5-Chloro-2-Fluorophenyl)Pyridazin-4-Yl]Amino}Quinoline-6-Carboxylate], the concentration for half-maximal inhibition (IC50) was 5 to 10 nM.

On to `CN1CCN(CCC(=O)Nc2cc(Nc3cc(-c4cc(Cl)ccc4F)nnc3C(F)(F)F)ccn2)CC1` [Example 182, N-(4-{[6-(5-Chloro-2-Fluorophenyl)-3-(Trifluoromethyl) Pyridazin-4-Yl]Amino}Pyridin-2-Yl)-3-(4-Methylpiperazin-1-Yl)Propanamide], for which the concentration for half-maximal inhibition (IC50) is < 1 nM.

Consider `CN1CCCN(CCCOc2ccc3c(Nc4cnnc(-c5cc(Cl)ccc5F)c4)ccnc3c2)C1` [Example 52, N-[6-(5-Chloro-2-Fluorophenyl)Pyridazin-4-Yl]-7-[3-(3-Methyl-1,3-Diazinan-1-Yl)Propoxy]Quinolin-4-Amine], for which the half-inhibitory concentration (IC50) was < 1 nM.

Turning to `N#CCCN1CCN(CCOc2ccc3c(Nc4cnnc(-c5cc(Cl)ccc5F)c4)ccnc3c2)CC1` [Example 71, 3-(4-{2-[(4-{[6-(5-Chloro-2-Fluorophenyl)Pyridazin-4-Yl]Amino}Quinolin-7-Yl)Oxy]Ethyl}Piperazin-1-Yl)Propanenitrile], the IC50 is < 1 nM.

Regarding `Cc1nnc(-c2cc(Cl)ccc2F)cc1Nc1ccnc(NC(=O)CCN2CCN(C)C(C)C2)c1` (stereo not drawn) [Example 145, N-(4-{[6-(5-Chloro-2-Fluorophenyl)-3-Methylpyridazin-4-Yl]Amino}Pyridin-2-Yl)-3-(3,4-Dimethylpiperazin-1-Yl)Propanamide], the IC50 is < 1 nM.

Take `CC(=O)N1CCCN(CCOc2ccc3c(Nc4cnnc(-c5cc(Cl)ccc5F)c4)ccnc3c2)C1` [Example 56, 1-(3-{2-[(4-{[6-(5-Chloro-2-Fluorophenyl)Pyridazin-4-Yl]Amino}Quinolin-7-Yl)Oxy]Ethyl}-1,3-Diazinan-1-Yl)Ethan-1-One]: the 50% inhibitory concentration (IC50) was < 1 nM.

With `Cc1nnc(-c2cc(Cl)ccc2F)cc1Nc1ccnc(NC(=O)CCN2CC3CC(C2)N3C)c1` [Example 146, N-(4-{[6-(5-Chloro-2-Fluorophenyl)-3-Methylpyridazin-4-Yl]Amino}Pyridin-2-Yl)-3-{6-Methyl-3,6-Diazabicyclo[3.1.1]Heptan-3-Yl}Propanamide], the IC50 was < 1 nM.

Take `CC(=O)N1CCN(CCOc2ccc3c(Nc4cnnc(-c5cc(Cl)ccc5F)c4)ccnc3c2)CC1` [Example 35, 1-(4-{2-[(4-{[6-(5-Chloro-2-Fluorophenyl)Pyridazin-4-Yl]Amino}Quinolin-7-Yl)Oxy]Ethyl}Piperazin-1-Yl)Ethan-1-One]: the IC50 is < 1 nM.

In the case of `COC(=O)C1CN(CCC(=O)Nc2cc(Nc3cc(-c4cc(Cl)ccc4F)nnc3C)ccn2)CCN1` (stereo not drawn) [Example 91, Methyl 4-{2-[(4-{[6-(5-Chloro-2-Fluorophenyl)-3-Methylpyridazin-4-Yl]Amino}Pyridin-2-Yl)Carbamoyl]Ethyl}Piperazine-2-Carboxylate], the half-maximal inhibitory concentration (IC50) is < 1 nM.

For `CC(=O)N1CCCN(CCC(=O)Nc2cc(Nc3cnnc(-c4cc(Cl)ccc4F)c3)ccn2)C1` [Example 43, 3-(3-Acetyl-1,3-Diazinan-1-Yl)-N-(4-{[6-(5-Chloro-2-Fluorophenyl)Pyridazin-4-Yl]Amino}Pyridin-2-Yl)Propanamide], the IC50 fell in the range of 1 to 5 nM.

As for `Cc1nnc(-c2cc(Cl)c(F)cc2F)cc1Nc1ccnc(NC(=O)CCN2CCN(C)CC2)c1` [Example 151, N-(4-{[6-(5-chloro-2,4-difluorophenyl)-3-methylpyridazin-4-yl]amino}pyridin-2-yl)-3-(4-methylpiperazin-1-yl)propanamide], the IC50 was < 1 nM.

For `CN1CCN(CCOc2ccc3c(Nc4cc(-c5cc(Cl)ccc5F)nnc4CO)ccnc3c2)CC1` [Example 177, [6-(5-Chloro-2-Fluorophenyl)-4-({7-[2-(4-Methylpiperazin-1-Yl)Ethoxy]Quinolin-4-Yl}Amino)Pyridazin-3-Yl]Methanol], the IC50 is < 1 nM.

As for `COC(=O)CCN1CCN(CCOc2ccc3c(Nc4cnnc(-c5cc(Cl)ccc5F)c4)ccnc3c2)CC1` [Example 60, Methyl 3-(4-{2-[(4-{[6-(5-Chloro-2-Fluorophenyl)Pyridazin-4-Yl]Amino}Quinolin-7-Yl)Oxy]Ethyl}Piperazin-1-Yl)Propanoate], the IC50 is < 1 nM.

On to `COC(=O)[C@H]1CC[C@@H](c2nnc(-c3cc(Cl)ccc3F)cc2Nc2ccnc(NC(=O)CCN3CCN(C)CC3)c2)CC1` [Example 188, methyl cis-4-(6-(5-chloro-2-fluorophenyl)-4-((2-(3-(4-methylpiperazin-1-yl)propanamido)pyridin-4-yl)amino)pyridazin-3-yl)cyclohexane-1-carboxylate], for which the IC50 was 1 to 5 nM.

As for `CN1CCN(CCC(=O)Nc2cc(Nc3cnnc(-c4cc(Cl)ccc4F)c3)ccn2)C(=O)C1` [Example 22, N-(4-{[6-(5-Chloro-2-Fluorophenyl)Pyridazin-4-Yl]Amino}Pyridin-2-Yl)-3-(4-Methyl-2-Oxopiperazin-1-Yl)Propanamide], the IC50 lay within 1 to 5 nM.

For the compound `O=C(Oc1ccc2c(Nc3cnnc(-c4cc(Cl)ccc4F)c3)ccnc2c1)N1CC(N2CCCC2)C1` [Example 133, 4-{[6-(5-Chloro-2-Fluorophenyl)Pyridazin-4-Yl]Amino}Quinolin-7-Yl 3-(Pyrrolidin-1-Yl)Azetidine-1-Carboxylate], the IC50 was < 1 nM.

In the case of `CN1CCC(CCN2CCN(C(=O)Oc3ccc4c(Nc5cnnc(-c6cc(Cl)ccc6F)c5)ccnc4c3)CC2)CC1` [Example 64, 4-{[6-(5-Chloro-2-Fluorophenyl)Pyridazin-4-Yl]Amino}Quinolin-7-Yl 4-[2-(1-Methylpiperidin-4-Yl)Ethyl]Piperazine-1-Carboxylate], the concentration for half-maximal inhibition (IC50) is < 1 nM.

In the case of `Cc1nnc(-c2cc(Cl)ccc2F)cc1Nc1ccnc(NC(=O)CCCN2CCCNCC2)c1` [Example 158, N-(4-{[6-(5-Chloro-2-Fluorophenyl)-3-Methylpyridazin-4-Yl]Amino}Pyridin-2-Yl)-4-(1,4-Diazepan-1-Yl)Butanamide], the IC50 was < 1 nM.

Regarding `CN(CCOc1ccc2c(Nc3cnnc(-c4cc(Cl)ccc4F)c3)ccnc2c1)C1COC1` [Example 42, N-[6-(5-Chloro-2-Fluorophenyl)Pyridazin-4-Yl]-7-{2-[Methyl(Oxetan-3-Yl)Amino]Ethoxy}Quinolin-4-Amine], the IC50 was < 1 nM.

Regarding `Nc1cc(Nc2cc(-c3cc(Cl)ccc3F)nnc2C(F)(F)F)ccn1` [Example 180, N4-[6-(5-Chloro-2-Fluorophenyl)-3-(Trifluoromethyl)Pyridazin-4-Yl]Pyridine-2,4-Diamine], the 50% inhibitory concentration (IC50) was < 1 nM.

Turning to `COC(=O)CCc1nnc(-c2cc(Cl)ccc2F)cc1Nc1ccnc(NC(=O)CCN2CCN(C)CC2)c1` [Example 187, Methyl 3-[6-(5-Chloro-2-Fluorophenyl)-4-({2-[3-(4-Methylpiperazin-1-Yl)Propanamido]Pyridin-4-Yl}Amino)Pyridazin-3-Yl]Propanoate], the IC50 is < 1 nM.

For the compound `Cc1nnc(-c2cc(Cl)ccc2F)cc1Nc1ccnc(NC(=O)CCN2CCOC3(CN(C)C3)C2)c1` [Example 147, N-(4-{[6-(5-chloro-2-fluorophenyl)-3-methylpyridazin-4-yl]amino}pyridin-2-yl)-3-{2-methyl-5-oxa-2,8-diazaspiro[3.5]nonan-8-yl}propanamide], the concentration for half-maximal inhibition (IC50) is < 1 nM.

As to `CN1CCCN(CCC(=O)Nc2cc(Nc3cnnc(-c4cc(Cl)ccc4F)c3)ccn2)C1` [Example 33, N-(4-{[6-(5-Chloro-2-Fluorophenyl)Pyridazin-4-Yl]Amino}Pyridin-2-Yl)-3-(3-Methyl-1,3-Diazinan-1-Yl)Propanamide], the 50% inhibitory concentration (IC50) is < 1 nM.

For the compound `CN1CC2(CCN(C(=O)Oc3ccc4c(Nc5cnnc(-c6cc(Cl)ccc6F)c5)ccnc4c3)CC2)C1` [Example 114, 4-{[6-(5-Chloro-2-Fluorophenyl)Pyridazin-4-Yl]Amino}Quinolin-7-Yl 2-Methyl-2,7-Diazaspiro[3.5]Nonane-7-Carboxylate], the half-inhibitory concentration (IC50) was < 1 nM.

With `Cc1nnc(-c2cc(Cl)ccc2F)cc1Nc1ccnc(NC(=O)CN2CCN(C)C3(CC3)C2)c1` [Example 144, N-(4-{[6-(5-Chloro-2-Fluorophenyl)-3-Methylpyridazin-4-Yl]Amino}Pyridin-2-Yl)-2-{4-Methyl-4,7-Diazaspiro[2.5]Octan-7-Yl}Acetamide], the IC50 is < 1 nM.

For the compound `Fc1ccc(Cl)cc1-c1cc(Nc2ccnc3cc(OCCN4CCNCC4)ccc23)cnn1` [Example 9, N-[6-(5-chloro-2-fluorophenyl)pyridazin-4-yl]-7-[2-(piperazin-1-yl)ethoxy]quinolin-4-amine], the 50% inhibitory concentration (IC50) is < 1 nM.

`Cc1nnc(-c2cc(Cl)ccc2F)cc1Nc1ccnc(NC(=O)NCCN2CCN(C)CC2)c1` [Example 141, 1-(4-{[6-(5-Chloro-2-Fluorophenyl)-3-Methylpyridazin-4-Yl]Amino}Pyridin-2-Yl)-3-[2-(4-Methylpiperazin-1-Yl)Ethyl]Urea]: the half-inhibitory concentration (IC50) was < 1 nM.

On to `O=C(CCN1CCNCC1)Nc1cc(Nc2cnnc(-c3cc(Cl)ccc3F)c2)ccn1` [Example 2, N-(4-{[6-(5-Chloro-2-Fluorophenyl)Pyridazin-4-Yl]Amino}Pyridin-2-Yl)-3-(Piperazin-1-Yl)Propanamide], for which the IC50 is < 1 nM.

As a reminder, the IC50 is the midpoint of a concentration-inhibition curve.
